pIC50: −log10 of the molar value.
How the values were obtained:
Type in all cases: cell-based
AKT = AKT ubiquitination assay (TUBE pulldown, western blot); conditions: KU-19-19 cells, 3 uM of compound, 6 hrs
Method: For each assay condition. 5.0×10^6 KU-19-19 cells were seeded in 10 cm dish grown in RPMI (Invitrogen. Carlsbad. CA. USA) supplemented with 10% fetal bovine serum. Cells were incubated overnight at 37° C. in a humidified atmosphere containing 5% CO2. […]. Next day, media was removed and cells were rinsed with 0.1% FBS cell culture media. Then 10 mL of 0.1% FBS+RPMI containing 3 uM of compound was added to each plate and treated with compound for 6 hrs. Cells were washed 3× with PBS and placed on ice. 900 μL of lysis buffer (50 mM Tris-HCl pH 7.4, 150 mM NaCl. 1% NP-40, 1% Sodium deoxycholate. 2 mM EDTA, 10% Glycerol, 5 mM Iodoacetamide (dissolved in ddH2O, MCE, Cat #HY-34477), 1×HALT protease\phosphatase inhibitor (Pierce. Cat #78440), 1×PMSF (Sigma. Cat #93482-50ML-F), 5 mM 1.10 Phenanthroline (in DMSO, MCE, Cat #HY—W004544), 25 uM MG-132 (in DMSO) (MCE. Cat #HY-13259), 50 μM PR-619 (make it in DMSO) (MCE. Cat #HY-13814) and 1× Benzonase (Sigma. Cat #E8263) was added and incubated on ice for 3-5 min and then scraped and collected. Lysates were incubated on ice for 1 hr and vortexed every 15 minutes before spinning down at 14 000 g for 10 minutes. Supernatants were collected and flash frozen in Liquid nitrogen for 10 minutes and stored at −80 C until further used. Adjust volume of samples with lysis buffer to obtain 1 mg in total volume of 1 mL. Perform TUBES pulldown following manufacturer's procedure using TUBE1 (high capacity magnetic beads) (Cat #UM-0501M-1000. LifeSensors). Briefly, wash 150 μl beads per sample with 12× beads volume of PBST (0.1% Tweed-20) three times. Add 1 mL of protein lysate to beads and incubate for 4 hours rotating at 4 C. Wash 4× with 10× beads volume of lysis buffer and rotate for 3 minutes, then collect beads with magnet for 3 minutes before collecting buffer. Wash 1× with 5× beads volumes of PBS-T. Wash TUBEs with 100 μl wash buffer for 5 minutes on thermomixer set at 1400 rpm and 25 C. TUBE washing buffer/TUBE Elution buffer/TUBE Neutralization buffer (Cat #UM411. LifeSensors) Elute with 18 μl of TUBE elution buffer for 15 minutes on thermomixer set at 1400 rpm at 25 C, and then collect eluate and add 2 μl of neutralization buffer. Load 18 μl of pulldown sample and 10 μg of input samples onto gel for western blot using standard methods with following antibodies: AKT (pan) (C67E7) (CST. Cat #4691S). β-Actin antibody (Cat #A1978, sigma) (Dilution. 1:2000) Anti-rabbit IgG. HRP-linked Antibody (CST. Cat #7074S) (Dilution, 1:2000)

AKT1 E17 = target: T1, AKT1 E17 (Homo sapiens, UniProt P31749, E17K); assay: AKT plasma membrane translocation assay (AKT1 E17K-SmBiT / LCK1-LgBiT luminescence); conditions: KU-19-19 cells transfected with AKT1E17K-SmBIT and LCK1-LgBiT, read up to 1 hr
T1 construct: expressed in transfected cells; host or cells: KU-19-19
T1 sequence (P31749 whole entry E17K): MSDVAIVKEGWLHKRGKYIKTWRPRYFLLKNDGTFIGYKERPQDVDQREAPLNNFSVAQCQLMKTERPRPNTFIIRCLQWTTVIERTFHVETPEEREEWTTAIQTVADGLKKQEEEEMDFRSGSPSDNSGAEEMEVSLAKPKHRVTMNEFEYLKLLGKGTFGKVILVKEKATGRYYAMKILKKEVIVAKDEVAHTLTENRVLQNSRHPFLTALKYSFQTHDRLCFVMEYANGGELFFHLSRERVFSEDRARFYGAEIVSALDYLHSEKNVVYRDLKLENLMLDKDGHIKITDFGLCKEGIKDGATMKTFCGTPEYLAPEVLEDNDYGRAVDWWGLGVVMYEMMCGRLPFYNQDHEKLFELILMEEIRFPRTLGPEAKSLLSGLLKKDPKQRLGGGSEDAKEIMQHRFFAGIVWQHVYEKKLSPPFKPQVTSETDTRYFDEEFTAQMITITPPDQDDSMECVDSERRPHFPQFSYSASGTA
Method: AKT plasma membrane translocation assay
Seed 1.5×10^6 KU-19-19 cells in 10 cm dish. Transfect cells at 70% cell confluency with 5 ug AKTIE17K-SmBIT and 0.5 ug LCK1-LgBiT with Jet-Optimus transfection reagent. Incubate for 4-5 hours at 37c 5% CO2 TC incubator. Split and seed 10K cells in 40 ul media per well in 384 well plate and incubate over night at 37° C. CO2 free TC incubator. Add 10 ul of 5× Vivazine substrate (prepared in CO2 independent medium) to cells and shake palte to mix for 30 seconds. Read Luminescence for 100 minutes until signal is stable (1 read per minute). Add 50 nl/well of 3 uM compound stock to cells.

MDAMB468.1 = assay: Cell Titer Glo (CTG) proliferation assay, MDA-MB-468; conditions: Homo sapiens, MDA-MB-468; MDAMB468.1 cells, 72.0 hrs.; read-out: AVE CTG Proliferation MDAMB468.1 72.0 hrs.
Method: (§1) Seed cells in 40 μL of cell culture media into each well of 384-well cell culture plate, spin them at room temperature at 1,000 RPM for 1 minute and then transfer the plates into 37° C. 5% CO2 incubator overnight. Next day, treat cells with 40 nL of diluted compound and return to incubator. After compound treatment for 3 days, Add 30 μL of CellTiter-Glo reagent (Promega) into each well to be detected. Then place the plates at room temperature for 30 min followed by reading on EnVision. Inhibition activity calculated as % DMSO=100×(LumSample-Lum low control)/(Lum high control-Lum low control) where high control is from cells treated with 0.1% DMSO and Low control obtained from PBS only. Use XLFit (equation 201) to calculate IC50 (A+ ((B−A)/(1[…]((x/C)^D)))) where A: Bottom, B: Top, C: IC50, D: Slope.

KU1919.1 = assay: Cell Titer Glo (CTG) proliferation assay, KU1919; conditions: Homo sapiens, KU-19-19; KU1919.1 cells, 72.0 hrs.; read-out: AVE CTG Proliferation KU1919.1 72.0 hrs.
Summary of the method: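 After overnight seeding at 37 °C, 5% CO2, cells were exposed to compound for 3 days. Viability read by CellTiter-Glo luminescence after 30 min at room temperature.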

MDAMB231.1 = assay: Cell Titer Glo (CTG) proliferation assay, MDA-MB-231; conditions: Homo sapiens, MDA-MB-231; MDAMB231.1 cells, 72 hrs.; read-out: AVE CTG Proliferation MDAMB231.1 72 hrs.
Method: as §1

For `CC(C)(C)OC(=O)N[C@@H](C(=O)N1CCC(OC2CCN(CC(=O)N3CCN(CC[C@H](NC(=O)C4(N)CCN(c5ncnc6[nH]ccc56)CC4)c4ccc(Cl)cc4)CC3)CC2)CC1)C1CCCCC1` [Compound I-312], the “Reduced AKT ubiquitination relative to PBM” value (AKT) was “Yes”, the “Reduced AKT1 E17 plasma membrane translocation relative to PBM” value (AKT1 E17) was “Yes” and the pIC50 (MDAMB468.1) was 5.30 to 6.00. It also gave a pIC50 (KU1919.1) of 5.30 to 6.00 and a pIC50 (MDAMB231.1) of 5.30 to 6.00.
With `NC1(C(=O)N[C@@H](CCN2CCN(C(=O)CN3CCC(OC4CCN(C(=O)[C@H](NC(=O)c5cccc(C6CCCN(C(=O)C7CC7)C6)c5)C5CCCCC5)CC4)CC3)CC2)c2ccc(Cl)cc2)CCN(c2ncnc3[nH]ccc23)CC1` (some centres unmarked) [Compound I-254] the “Reduced AKT ubiquitination relative to PBM” value (AKT) was “Yes”, the “Reduced AKT1 E17 plasma membrane translocation relative to PBM” value (AKT1 E17) was “Yes” and the pIC50 (MDAMB468.1) was 5.30 to 6.00. For the same compound, the pIC50 (KU1919.1) was 5.30 to 6.00 and the pIC50 (MDAMB231.1) was 5.30 to 6.00.
With `NC1(C(=O)N[C@@H](CCN2CCN(C(=O)CN3CCC(OC4CCN(C(=O)[C@H](NC(=O)c5cccc(C6CN(C(=O)CNCc7ccc(F)cc7F)C6)c5)C5CCCCC5)CC4)CC3)CC2)c2ccc(Cl)cc2)CCN(c2ncnc3[nH]ccc23)CC1` [Compound I-242] the “Reduced AKT ubiquitination relative to PBM” value (AKT) was “Yes”, the “Reduced AKT1 E17 plasma membrane translocation relative to PBM” value (AKT1 E17) was “Yes” and the pIC50 (MDAMB468.1) was 5.30 to 6.00. It also gave a pIC50 (KU1919.1) of 6.00 to 6.30 and a pIC50 (MDAMB231.1) of 5.30 to 6.00.
`CCOc1cc(OC)ccc1CNCC(=O)N1CCCC(c2cccc(C(=O)N[C@@H](C(=O)N3CCN(CC4CCN(CC(=O)N5CCN(CC[C@H](NC(=O)C6(N)CCN(c7ncnc8[nH]ccc78)CC6)c6ccc(Cl)cc6)CC5)CC4)CC3)C3CCCCC3)c2)C1` (some centres unmarked) [Compound I-46] was tested, and the “Reduced AKT ubiquitination relative to PBM” value (AKT) was “Yes” and the “Reduced AKT1 E17 plasma membrane translocation relative to PBM” value (AKT1 E17) was “Yes”.
For `NC1(C(=O)N[C@@H](CCN2CCN(C(=O)CN3CCC(OC4CCN(C(=O)[C@H](NC(=O)c5cccc(C6CN(C(=O)CNC7CC7)C6)c5)C5CCCCC5)CC4)CC3)CC2)c2ccc(Cl)cc2)CCN(c2ncnc3[nH]ccc23)CC1` [Compound I-241], the pIC50 (MDAMB468.1) was 5.30 to 6.00, the pIC50 (KU1919.1) was 5.30 to 6.00 and the pIC50 (MDAMB231.1) was 5.00 to 5.30.
In the case of `CCc1cccc(-c2cc(F)c(C(=O)N3CCC(OC4CCN(CC(=O)NCCNC[C@@H](C(=O)N5CCN(c6ncnc7c6[C@H](C)C[C@H]7O)CC5)c5ccc(Cl)cc5)CC4)CC3)c(F)c2)c1` [Compound I-261], the pIC50 (MDAMB468.1) was 5.30 to 6.00, the pIC50 (KU1919.1) was 5.30 to 6.00 and the pIC50 (MDAMB231.1) was 5.30 to 6.00.
`CC(C)(C)OC(=O)N[C@@H](C(=O)N1CCN(CC2CCN(CC(=O)N3CCN(CC[C@H](NC(=O)C4(N)CCN(c5ncnc6[nH]ccc56)CC4)c4ccc(Cl)cc4)CC3)CC2)CC1)C1CCCCC1` [Compound I-310] gave a pIC50 (MDAMB468.1) of 5.30 to 6.00, a pIC50 (KU1919.1) of 5.30 to 6.00 and a pIC50 (MDAMB231.1) of 5.00 to 5.30.
Compound `CC1(C(=O)N2CCCC(c3cccc(C(=O)N[C@@H](C(=O)N4CCC(OC5CCN(CC[C@H](NC(=O)C6(N)CCN(c7ncnc8[nH]ccc78)CC6)c6ccc(Cl)cc6)CC5)CC4)C4CCCCC4)c3F)C2)CC1` (some centres unmarked) [Compound I-282] has a pIC50 (MDAMB468.1) of 5.30 to 6.00, a pIC50 (KU1919.1) of 5.30 to 6.00 and a pIC50 (MDAMB231.1) of 5.30 to 6.00.
For `N[C@@H](C(=O)N1CCC(OC2CCN(CC(=O)N3CCN(CC[C@H](NC(=O)C4(N)CCN(c5ncnc6[nH]ccc56)CC4)c4ccc(Cl)cc4)CC3)CC2)CC1)C1CCCCC1` [Compound I-235], the pIC50 (MDAMB468.1) was < 5.00, the pIC50 (KU1919.1) was < 5.00 and the pIC50 (MDAMB231.1) was < 5.00.
`NC1(C(=O)N[C@@H](CCN2CCC(OC3CCN(C(=O)[C@H](NC(=O)c4cccc(C5CCCN(C(=O)CNC6CC6)C5)c4F)C4CCCCC4)CC3)CC2)c2ccc(Cl)cc2)CCN(c2ncnc3[nH]ccc23)CC1` (some centres unmarked) [Compound I-283] showed a pIC50 (MDAMB468.1) of 5.30 to 6.00, a pIC50 (KU1919.1) of 5.30 to 6.00 and a pIC50 (MDAMB231.1) of 5.30 to 6.00.
In the case of `NC1(C(=O)N[C@@H](CCN2CCC(OC3CCN(C(=O)c4c(F)cc(-c5ccccc5)cc4F)CC3)CC2)c2ccc(Cl)cc2)CCN(c2ncnc3[nH]ccc23)CC1` [Compound I-281], the pIC50 (MDAMB468.1) was 5.30 to 6.00, the pIC50 (KU1919.1) was 5.30 to 6.00 and the pIC50 (MDAMB231.1) was > 6.30.
Compound `CCc1cccc(-c2cnc(C(=O)N3CCC(OC4CCN(CC(=O)NCCNC[C@@H](C(=O)N5CCN(c6ncnc7c6[C@H](C)C[C@H]7O)CC5)c5ccc(Cl)cc5)CC4)CC3)c(NC(C)=O)c2)c1` [Compound I-196] has a pIC50 (MDAMB468.1) of 5.00 to 5.30, a pIC50 (KU1919.1) of 5.30 to 6.00 and a pIC50 (MDAMB231.1) of 5.00 to 5.30.
In the case of `CCOc1cc(OC)ccc1CNCC(=O)N1CCC[C@H](c2cccc(C(=O)N[C@@H](C(=O)N3CCN(CC4CCN(CC(C(=O)N5CCN(c6ncnc7c6[C@H](C)C[C@H]7O)CC5)c5ccc(Cl)cc5)CC4)CC3)C3CCCCC3)c2)C1` (some centres unmarked) [Compound I-219], the pIC50 (MDAMB468.1) was 5.30 to 6.00, the pIC50 (KU1919.1) was 6.00 to 6.30 and the pIC50 (MDAMB231.1) was 5.30 to 6.00.
Compound `CCc1cccc(-c2cnc(C(=O)N3CCN(CC4CCN(CC(=O)NCCNC[C@@H](C(=O)N5CCN(c6ncnc7c6[C@H](C)C[C@H]7O)CC5)c5ccc(Cl)cc5)CC4)CC3)c(NC(=O)OC(C)(C)C)c2)c1` [Compound I-306] has a pIC50 (MDAMB468.1) of 5.30 to 6.00, a pIC50 (KU1919.1) of 5.30 to 6.00 and a pIC50 (MDAMB231.1) of 5.30 to 6.00.
With `NC1(C(=O)N[C@@H](CCN2CCN(C(=O)CN3CCC(OC4CCN(C(=O)[C@H](NC(=O)c5cc(C6CN(C(=O)CNCc7ccc(F)cc7F)C6)ccc5F)C5CCCCC5)CC4)CC3)CC2)c2ccc(Cl)cc2)CCN(c2ncnc3[nH]ccc23)CC1` [Compound I-226] the pIC50 (MDAMB468.1) was 5.30 to 6.00, the pIC50 (KU1919.1) was 6.00 to 6.30 and the pIC50 (MDAMB231.1) was 5.30 to 6.00.

— patent publication US20250171465A1, “AKT INHIBITORS” (Stablix, Inc., priority 2023, published 2025)
